From ChEMBL document CHEMBL5303709, “ECBD screening data for assay EOS300041” (2022) come the findings set out here.

Peptide text beside a SMILES is read from it. * marks the point of attachment. Cbz = O=C(OCc1ccccc1)*

The assay addresses Replicase polyprotein 1ab (Severe acute respiratory syndrome coronavirus 2) (UniProt P0DTD1). The assay is described as follows: Inhibition of SARS-CoV-2 3CL-Pro proteolytic cleavage of a dual-labeled substrate by FRET. Details: assay stage. The assay is classed as functional.
For the compound `NC(Cc1cc(O)c(O)cc1O)C(=O)O` (racemic), the IC50 relative was greater than 20 µM.

For the compound `O=c1c(O)cccc2cc(O)c(O)c(O)c12`, the IC50 relative was 6.98 µM.

With `O=C1C(Cl)=C(Cl)C(=O)C(Cl)=C1Cl`, the IC50 relative is less than 0.02 µM.

For `Cc1cc(-c2ccc(/N=N/c3ccc4c(S(=O)(=O)O)cc(S(=O)(=O)O)c(N)c4c3O)c(C)c2)ccc1/N=N/c1ccc2c(S(=O)(=O)O)cc(S(=O)(=O)O)c(N)c2c1O`, the IC50 relative is greater than 20 µM.

For `Cc1cc(-c2ccc(/C=C3/S/C(=N\c4ccc(Cl)c(C(=O)O)c4)NC3=O)o2)c([N+](=O)[O-])cc1C`, the IC50 relative was greater than 20 µM.

Take `COC(=O)CC[C@H](NC(=O)[C@H](CC(=O)OC)NC(=O)OCc1ccccc1)C(=O)N[C@H](C(=O)N[C@@H](CC(=O)OC)C(=O)CF)C(C)C`: the IC50 relative was less than 0.02 µM.

In the case of `Sc1nnc(Nc2ccccc2)s1`, the IC50 relative is 0.39 µM.

Regarding `CCOc1cc(C(Nc2cc(C)ccn2)c2ccc3cccnc3c2O)ccc1OC` (configuration not stated), the IC50 relative was 0.269 µM.

As to `Cc1ccc(S(=O)(=O)N[C@@H](Cc2ccccc2)C(=O)CCl)cc1`, the IC50 relative was 1.37 µM.

Regarding `CCOC(=O)c1c(N)sc(-c2ccccc2)c1C`, the IC50 relative was 3.28 µM.

`O=C(/C=C/c1ccc2ccccc2n1)c1ccncc1`: the IC50 relative is greater than 20 µM.

In the case of `O=C(c1ccc(Cl)cc1)c1cc([N+](=O)[O-])ccc1N1CCOCC1`, the IC50 relative is greater than 20 µM.

Regarding `COc1ncc(-c2ccc3nccc(-c4ccnnc4)c3c2)cc1NS(=O)(=O)c1ccc(F)cc1F`, the IC50 relative was greater than 20 µM.

Turning to `O=C(NC(=S)N1CCCc2ccccc21)c1ccccc1`, the IC50 relative is greater than 20 µM.

Take `O=C(CCl)c1ccccc1`: the IC50 relative is 0.19 µM.

`Nc1nc(S)c2ncn(C3OC(CO)C(O)C3O)c2n1` (configuration not stated): the IC50 relative was 1.07 µM.

Take `CCN(CC)C(=S)S`: the IC50 relative was greater than 20 µM.

Turning to `Nc1ccc(O)c2ncccc12`, the IC50 relative is 2.05 µM.

In the case of `CCCCn1c(NC(=O)c2cccs2)c(C#N)c2nc3ccccc3nc21`, the IC50 relative is greater than 20 µM.

As to `Sc1nnnn1-c1ccccc1`, the IC50 relative was 2.36 µM.

As for `COc1ccc2[nH]c([S+]([O-])Cc3ncc(C)c(OC)c3C)nc2c1` (configuration not stated), the IC50 relative is greater than 20 µM.

Consider `O=C(O)c1c(Cl)c(Cl)c(Cl)c(Cl)c1-c1c2cc(I)c(=O)c(I)c-2oc2c(I)c(O)c(I)cc12`, for which the IC50 relative was greater than 20 µM.

On to `COc1ccc2[nH]c3c(S)ncnc3c2c1`, for which the IC50 relative was greater than 20 µM.

In the case of `S=C=Nc1cccc(NC(=S)NCCCCNC(=S)Nc2cccc(N=C=S)c2)c1`, the IC50 relative was greater than 20 µM.

With `Cc1c(-c2ccc(N3CCc4cccc(C(=O)Nc5nc6ccccc6s5)c4C3)nc2C(=O)O)cnn1CC12CC3CC(CC(C3)C1)C2`, the IC50 relative was greater than 20 µM.

On to `[O-][n+]1ccccc1S`, for which the IC50 relative is 0.0487 µM.

`O=[N+]([O-])c1ccc(Sc2cccc[n+]2[O-])c2nonc12`: the IC50 relative was less than 0.02 µM.

`O=C(O)C1=CC(=C(c2ccc(O)c(C(=O)O)c2)c2ccc(O)c(C(=O)O)c2)C=CC1=O`: the IC50 relative is greater than 20 µM.

As for `Cc1ccc(C)c(-n2sc3cc(F)ccc3c2=O)c1`, the IC50 relative is less than 0.02 µM.

Take `CC(Cc1ccc(O)c(O)c1)C(C)Cc1ccc(O)c(O)c1` (configuration not stated): the IC50 relative is greater than 20 µM.

Regarding `C[C@H]1COC2=C1C(=O)C(=O)c1c2ccc2c1CCCC2(C)C`, the IC50 relative is greater than 20 µM.

Turning to `S=C=NCc1ccccc1`, the IC50 relative is greater than 20 µM.

In the case of `CCN1CCN(C(c2ccc(C(F)(F)F)cc2)c2ccc3cccnc3c2O)CC1` (configuration not stated), the IC50 relative was 0.152 µM.

Consider `CN1CCN(C(=O)c2ccc(-c3ccc4c(C=O)c(O)ccc4c3)s2)CC1`, for which the IC50 relative is 1.94 µM.

As to `O=C(Nc1ccccc1)Nc1ccc(-c2ccc(C(=O)[C@@H]3CCC[C@H]3C(=O)O)cc2)cc1`, the IC50 relative is greater than 20 µM.

On to `CC(C)C[C@@H](C=O)NC(=O)[C@H](CC(C)C)NC(=O)[C@H](CC(C)C)NC(=O)OCc1ccccc1` (Cbz-Leu-Leu-Leu-aldehyde), for which the IC50 relative was greater than 20 µM.

As for `Cc1ccc(-n2sc(=O)n(Cc3ccc(F)cc3)c2=O)cc1`, the IC50 relative was less than 0.02 µM.

In the case of `O=c1cc(-c2ccccc2)oc2cc(O)c(O)c(O)c12`, the IC50 relative is greater than 20 µM.

As for `O=C(O)[C@@H](S)[C@@H](S)C(=O)O`, the IC50 relative was 6.74 µM.

On to `Cn1sc(=O)n(Cc2ccccc2)c1=O`, for which the IC50 relative was less than 0.02 µM.

As for `Sc1nnc(-c2ccccc2Cl)o1`, the IC50 relative was greater than 20 µM.

Consider `Oc1cc2c(cc1C(c1ccc(C(F)(F)F)cc1)N1CCOCC1)OCO2` (configuration not stated), for which the IC50 relative was 0.545 µM.

In the case of `COc1cc(N(C)C)cc(CN(C)CCc2ccc([N+](=O)[O-])cc2)c1O`, the IC50 relative is 6.09 µM.

With `CC1=CC(=O)c2ccccc2C1=O`, the IC50 relative is greater than 20 µM.

Consider `COc1ccc2[nH]c(S)nc2c1`, for which the IC50 relative was greater than 20 µM.

In the case of `CC(C)(C)OC(=O)NCCc1nnc(S(=O)(=O)Cc2ccc(Cl)cc2Cl)o1`, the IC50 relative was 4.22 µM.

On to `O=C(c1cccs1)c1no[n+]([O-])c1C(=O)c1cccs1`, for which the IC50 relative was 11 µM.

In the case of `CCN(CC)S(=O)(=O)c1cccc(-n2sc3ccccc3c2=O)c1`, the IC50 relative is less than 0.02 µM.

Consider `Cc1ccc(-n2sc3ccccc3c2=O)cc1`, for which the IC50 relative is less than 0.02 µM.

For the compound `COc1ccnc(C[S+]([O-])c2nc3cc(OC(F)F)ccc3[nH]2)c1OC` (configuration not stated), the IC50 relative is greater than 20 µM.

In the case of `O=c1c2ccccc2sn1-c1ccccc1`, the IC50 relative is less than 0.02 µM.

For the compound `CN(C)S(=O)(=O)c1cccc(-n2sc3ccccc3c2=O)c1`, the IC50 relative is less than 0.02 µM.
